4 substances from patent US11214803B2, “Modulators of YAP1 expression” (Ionis Pharmaceuticals, Inc., priority 2019, dated 2022) can be followed below.

Series [1] relates to Yap1 mRNA. Kind of series: Dose-dependent inhibition of human Yap1 in A-431 cells (Example 8, 10,000 cells per well, RTS4814). In kind it is cell-based. The following applies: free uptake, approximately 48 hours, RTS4814; for Yap1 mRNA, % UTC: A-431 cells, 10,000 cells per well. In short, it runs like this: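 Yap1 mRNA, normalized to RIBOGREEN total RNA and expressed as % untreated control, was read with RTS4814 about 48 h after free-uptake oligonucleotide treatment of A-431 cells at 10,000 cells/well. IC50 derived by linear regression of log/linear data.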

Series [2] in a line: Tolerability in CD-1 mice, plasma chemistry markers (Example 17). In kind it is in vivo. The following applies: male CD-1 mice, 50 mg/kg s.c. twice a week for four weeks (8 treatments), day 27. Here is the method: (§1) CD-1 mice were treated with modified oligonucleotides selected from studies described above and evaluated for changes in the levels of various plasma chemistry markers.
(§2) Groups of four male CD-1 mice at 4-5 weeks of age (obtained from Charles River) were injected subcutaneously twice a week for four weeks (for a total of 8 treatments) with 50 mg/kg of modified oligonucleotides. One group of male CD-1 mice was injected with PBS. Mice were euthanized on day 27 post start of treatment (24 hrs following the final administration).

Series [3] can be described thus: Tolerability in CD-1 mice, body and organ weights (Example 17). In kind it is in vivo. The following applies: male CD-1 mice, 50 mg/kg s.c. twice a week for four weeks (8 treatments), end of study (day 27). The method, then: as §2
(§3) Body weights of CD-1 mice were measured at the end of the study, and the average body weight for each group is presented in the table below. Modified oligonucleotides that caused any changes in organ weights outside the expected range for modified oligonucleotides were excluded from further studies.

Series [4] deals with Yap1 mRNA. As to the kind of experiment: Dose-dependent inhibition of human Yap1 in A-431 cells (Example 6, 5,000 cells per well, RTS4814). In kind it is cell-based. To be noted: Table 53, A-431 cells. In short, it runs like this:
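A-431 cells (5,000/well) took up oligonucleotides by free uptake at various doses for about 48 h. Yap1 mRNA was measured by RT-PCR (RTS4814), normalised to RIBOGREEN total RNA and expressed as % untreated control; IC50 by linear regression on a log/linear plot.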

For series [5], the system named is Yap1 mRNA. As to the kind of experiment: Dose-dependent inhibition of human Yap1 in A-431 cells (Example 7, 10,000 cells per well, RTS36584). In kind it is cell-based. The following applies: free uptake. In short, it runs like this:
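Yap1 mRNA was expressed as percent of untreated control after normalization to total RNA (RIBOGREEN), and IC50 was derived by log/linear linear regression. The read-out used primer-probe set RTS36584 roughly 48 hours after free-uptake dosing of oligonucleotides into A-431 cells (10,000 cells/well).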

A short description of series [6]: Tolerability in Balb/c mice, plasma chemistry markers (Example 11). In kind it is in vivo. The following applies: 50 mg/kg subcutaneously twice a week for four weeks. In short, it runs like this: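 Male Balb/c mice aged 4-6 weeks received 50 mg/kg modified oligonucleotide subcutaneously twice weekly for four weeks (8 doses), with a PBS control group. Plasma chemistry markers were assessed after euthanasia on day 26, 24 hours after the final dose.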

A short description of series [7]: Tolerability in Balb/c mice, body and organ weights (Example 11). In kind it is in vivo. To be noted: 50 mg/kg subcutaneously twice a week for four weeks, end of study. In short, it runs like this: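 Male Balb/c mice, 4-6 weeks old, dosed subcutaneously with 50 mg/kg modified oligonucleotide twice weekly for four weeks (8 doses), PBS group as control. Euthanized day 26, 24 hours after the last dose; body and organ weights recorded at study end.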

Series [8] in a line: Tolerability in CD-1 mice, plasma chemistry markers (Example 15). In kind it is in vivo. To be noted: male CD-1 mice, 50 mg/kg s.c. twice a week for four weeks (8 treatments), day 26. The method, then: as §1
(§4) Groups of four male CD-1 mice at 4-5 weeks of age (obtained from Charles River) were injected subcutaneously twice a week for four weeks (for a total of 8 treatments) with 50 mg/kg of modified oligonucleotides. One group of male CD-1 mice was injected with PBS. Mice were euthanized on day 26 post start of treatment (24 hrs following the final administration).

Series [9] is described as follows: Tolerability in CD-1 mice, body and organ weights (Example 15). In kind it is in vivo. The following applies: male CD-1 mice, 50 mg/kg s.c. twice a week for four weeks (8 treatments), end of study (day 26). The method, then:
as §4, §3

Series [10] in a line: Tolerability in CD-1 mice, plasma chemistry markers (Example 16). In kind it is in vivo. To be noted: male CD-1 mice, 50 mg/kg s.c. twice a week for four weeks (8 treatments), day 27. Here is the method:
as §1, §2

A short description of series [11]: Tolerability in CD-1 mice, body and organ weights (Example 16). In kind it is in vivo. To be noted: male CD-1 mice, 50 mg/kg s.c. twice a week for four weeks (8 treatments), end of study (day 27). The method, then:
as §2, §3

“And” between values parts separate entries of the source, which are not always exact repeats. Identical values can stand only once. Strand notation (5' to 3'): a small letter for the sugar, then the base; units joined by * are phosphorothioate-linked, units joined directly phosphodiester-linked; [ ] holds rarer units or linkages, { } end groups; capitals alone tell only the bases. k = constrained ethyl (cEt); [5mC] = 5-methylcytosine; d = 2'-deoxy (DNA) Where only a bound is given, the exact number is not on record here.

Consider “1075395 (antisense kA*kT*kG*dA*dA*dT*dA*dA*dG*dT*dA*dT*dG*k[5mC]*k[5mC]*kA) [compound 1075395]”, for which, in the series with Yap1 mRNA [1] (31.3 nM), the “Yap1 mRNA, % UTC” value is on record as 60 % UTC. The “Yap1 mRNA, % UTC” value in the series with Yap1 mRNA [1] (125.0 nM) is 18 % UTC. In the series with Yap1 mRNA [1] (500.0 nM), the “Yap1 mRNA, % UTC” value amounted to 7 % UTC. For the same substance, the “Yap1 mRNA, % UTC” value in the series on Yap1 mRNA [1] (2000.00 nM) was 5 % UTC. The substance further gave a 50% inhibitory concentration (IC50) in the series with Yap1 mRNA [1] (A-431 cells, linear regression on log/linear plot) of under 0.02 µM. In series [2], this substance came in with an ALT of 38 U/L, an AST of 51 U/L, a BUN of 21 mg/dL and a TBIL of 0.18 mg/dL. For the same substance, in [3], the Kidney weight is 0.49 g, the Liver weight was found to be 2.30 g, the Spleen weight amounted to 0.20 g and the body weight turned out to be 34 g.

In the case of “715483 (k[5mC]*kT*k[5mC]*dT*dT*dT*dG*dG*dA*dA*dA*d[5mC]*d[5mC]*kA*kT*kT) [compound 715483]”, the IC50 in the series on Yap1 mRNA [4] (Yap1 mRNA, linear regression on a log/linear plot) was 1.1 µM; with Yap1 mRNA [5] (Table 56, A-431 cells 10,000 cells per well), 0.05 µM; with Yap1 mRNA [5] (Table 57, A-431 cells 10,000 cells per well), 0.1 µM; in the series with Yap1 mRNA [5] (Table 58, A-431 cells 10,000 cells per well), 0.1 µM; with Yap1 mRNA [5] (Table 59, A-431 cells 10,000 cells per well), 0.1 µM; with Yap1 mRNA [5] (Table 60, A-431 cells 10,000 cells per well) it was 0.1 µM. Besides, the IC50 in the series with Yap1 mRNA [5] (Table 61, A-431 cells 10,000 cells per well) worked out at 0.1 µM. Also, the “% UTC 148 nM” value in the series on Yap1 mRNA [4] (free uptake, 148 nM, approximately 48 hours, RTS4814) is 82 % UTC. Further, the “% UTC 444 nM” value in the series with Yap1 mRNA [4] (free uptake, 444 nM, approximately 48 hours, RTS4814) was 58 % UTC. The “% UTC 1333 nM” value with Yap1 mRNA [4] (free uptake, 1333 nM, approximately 48 hours, RTS4814) turned out to be 43 % UTC. Further, in the series with Yap1 mRNA [4] (free uptake, 4000 nM, approximately 48 hours, RTS4814), the “% UTC 4000 nM” value came to 35 % UTC. Moreover, the “Yap1 mRNA, % UTC” value in the series on Yap1 mRNA [5] (15.6 nM, A-431 cells, 10,000 cells per well, approximately 48 hours) was 88 % UTC and 87 % UTC and 77 % UTC; in the series on Yap1 mRNA [5] (62.5 nM, A-431 cells, 10,000 cells per well, approximately 48 hours), 40 % UTC and 45 % UTC and 36 % UTC; in the series on Yap1 mRNA [5] (4000.00 nM, A-431 cells, 10,000 cells per well, approximately 48 hours) it was 4 % UTC and 3 % UTC; in the series on Yap1 mRNA [5] (Table 56, 15.6 nM, A-431 cells 10,000 cells per well, 48 hours) it was 78 % UTC; in the series on Yap1 mRNA [5] (Table 56, 62.5 nM, A-431 cells 10,000 cells per well, 48 hours), 38 % UTC; in the series on Yap1 mRNA [5] (Table 56, 4000.00 nM, A-431 cells 10,000 cells per well, 48 hours), 6 % UTC. Further, the “Yap1 mRNA, % UTC” value with Yap1 mRNA [5] (Table 57, 15.6 nM, A-431 cells 10,000 cells per well, 48 hours) was found to be 79 % UTC; in the series on Yap1 mRNA [5] (Table 57, 62.5 nM, A-431 cells 10,000 cells per well, 48 hours), 45 % UTC; in the series with Yap1 mRNA [5] (Table 57, 4000.00 nM, A-431 cells 10,000 cells per well, 48 hours), 4 % UTC; in the series on Yap1 mRNA [5] (Table 58, 15.6 nM, A-431 cells 10,000 cells per well, 48 hours), 84 % UTC; in the series on Yap1 mRNA [5] (Table 58, 62.5 nM, A-431 cells 10,000 cells per well, 48 hours) it was 44 % UTC; in the series on Yap1 mRNA [5] (Table 58, 4000.00 nM, A-431 cells 10,000 cells per well, 48 hours) it was 5 % UTC. In addition, the “Yap1 mRNA, % UTC” value is recorded as 83 % UTC with Yap1 mRNA [5] (Table 59, 15.6 nM, A-431 cells 10,000 cells per well, 48 hours); 44 % UTC with Yap1 mRNA [5] (Table 59, 62.5 nM, A-431 cells 10,000 cells per well, 48 hours); 4 % UTC in the series with Yap1 mRNA [5] (Table 59, 4000.00 nM, A-431 cells 10,000 cells per well, 48 hours); 79 % UTC in the series with Yap1 mRNA [5] (Table 60, 15.6 nM, A-431 cells 10,000 cells per well, 48 hours); 40 % UTC in the series with Yap1 mRNA [5] (Table 60, 62.5 nM, A-431 cells 10,000 cells per well, 48 hours); 3 % UTC in the series on Yap1 mRNA [5] (Table 60, 4000.00 nM, A-431 cells 10,000 cells per well, 48 hours). The “Yap1 mRNA, % UTC” value is 80 % UTC with Yap1 mRNA [5] (Table 61, 15.6 nM, A-431 cells 10,000 cells per well, 48 hours); 38 % UTC in the series with Yap1 mRNA [5] (Table 61, 62.5 nM, A-431 cells 10,000 cells per well, 48 hours); 4 % UTC with Yap1 mRNA [5] (Table 61, 4000.00 nM, A-431 cells 10,000 cells per well, 48 hours). Further, the ALT in series [6] came to 62 U/L; in [8], 79 U/L. Further, the results for the AST in series [6] and in series [8] were 70 U/L and 125 U/L, respectively. For the same substance, the BUN in series [6] worked out at 16 mg/dL. For the same substance, in series [6], the TBIL was determined as 0.17 mg/dL. Also, the Kidney weight in series [7] was 0.43 g; in series [9], 0.64 g. In addition, the Liver weight in [7] was found to be 1.56 g; in series [9] it was 2.26 g. The Spleen weight in series [7] is recorded as 0.12 g; in [9], 0.21 g. Also, the body weight is recorded as 25 g in [7] and 40 g in series [9]. In [8], this substance yielded an ALB of 2.2 g/dL.

In series [2], “1097037 (kA*kG*kA*dT*dT*dT*dA*dG*dG*dA*dT*dG*d[5mC]*kA*kT*kG; antisense) [compound 1097037]” showed an ALT of 73 U/L, an AST of 97 U/L, a BUN of 23 mg/dL and a TBIL of 0.12 mg/dL. In series [3], this substance yielded a Kidney weight of 0.52 g, a Liver weight of 2.33 g, a Spleen weight of 0.21 g and a body weight of 33 g.

“1076186 (kA*kT*kT*dT*dA*dG*dG*dA*dT*dG*d[5mC]*dA*dT*kG*kG*kT) [compound 1076186]”: in series [10], the ALT is given as 74 U/L, the AST is reported as 97 U/L, the Albumin is 2.5 g/dL and the BUN is 23 mg/dL. Also, the TBIL in series [10] is on record as 0.16 mg/dL. Besides, in series [11], the Kidney weight is recorded as 0.58 g, the Liver weight is 2.42 g, the Spleen weight came to 0.16 g and the body weight stood at 37 g.
